# In patent US6964975B2, “Isoxazole and thiazole compounds and use thereof as medicine” (Kirin Beer Kabushiki Kaisha, priority 2000, dated 2005):
# How the values were obtained:
# Human EDG-2/HepG2 cells = test: Inhibitory activity on LPA-accelerated [3H] thymidine incorporation (cell proliferation); format: cell-based; settings: 50% inhibition of LPA-induced increase of [3H] thymidine incorporation
# Text: The human EDG-2 expression plasmid was introduced into HepG2 cells by electroporation. After the introduction, culturing was continued while exchanging selective media every 3 to 4 days, thereby obtaining an expressed colony. Regarding these cells, Ca-influx and cell-proliferation by LPA, level of [^3H] LPA binding and the like were inspected to select a cell line which highly expresses human EDG-2 (human EDG-2/HepG2).
# Human EDG-2/HepG2 cells suspended in 10% bovine serum-containing DMEM (Dulbecco's modified eagle medium) were plated on a 96-well plate and, on the next day, the medium was exchanged with serum-free DMEM. 24 hours later, the medium was exchanged with DMEM containing LPA or DMEM containing no LPA, cells were cultured for further 16 hours, and [^3H] thymidine was then added. After culturing for 8 hours subsequent to the addition of [^3H] thymidine, cells were washed with PBS (phosphate-buffered saline), and the amount of [^3H] thymidine incorporated into the cells were assayed by Betaplate filter counter system (Amersham Pharmacia Biotech). The difference between the amount of [^3H] thymidine incorporated in the LPA-added well and the amount of [^3H] thymidine incorporated in the well containing no LPA represents the amount of [^3H] thymidine incorporation accelerated by LPA. […] The test compounds were added immediately before the LPA addition.
# human EDG-2 = molecular target: T1, human EDG-2 (Homo sapiens, UniProt Q92633); test: Inhibitory activity on LPA-induced elevation of intracellular Ca2+ level; format: cell-based; settings: 50% inhibition of elevation of intracellular Ca2+ level by LPA, human EDG-2/HepG2 cells, fura-2
# T1 construct: cDNA of the cloned human EDG-2 was introduced into pEFneo, which is an animal expression vector; expressed in transfected cells; host or cells: HepG2
# In short: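 Stably transfected HepG2 cells loaded with fura-2/AM (45 min, room temperature) in 0.1% BSA HEPES buffer. Test compound added before LPA, and the LPA-evoked intracellular Ca2+ rise measured fluorometrically. IC50 for inhibition derived.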
# T1 sequence (Q92633 whole entry): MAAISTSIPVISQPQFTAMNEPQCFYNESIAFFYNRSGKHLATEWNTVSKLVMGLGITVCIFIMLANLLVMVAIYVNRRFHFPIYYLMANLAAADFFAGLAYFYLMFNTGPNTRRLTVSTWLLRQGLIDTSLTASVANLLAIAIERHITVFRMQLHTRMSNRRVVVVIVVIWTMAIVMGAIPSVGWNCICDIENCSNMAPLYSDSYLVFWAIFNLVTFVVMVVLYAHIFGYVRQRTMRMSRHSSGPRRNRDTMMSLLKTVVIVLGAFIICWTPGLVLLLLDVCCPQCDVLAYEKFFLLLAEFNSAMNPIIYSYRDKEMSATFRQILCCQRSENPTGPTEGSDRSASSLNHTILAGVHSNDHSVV
Structure (SMILES),IC50 (Human EDG-2/HepG2 cells) [nM],IC50 (human EDG-2) [nM]
"Cc1noc(-c2ccc(CSc3nc[nH]n3)cc2)c1NC(=O)OC(C)c1ccccc1Cl (stereo not drawn) [Compound 136, 1-(2-Chlorophenyl)ethyl N-(3-methyl-5-{4-[(1H-1,2,4-triazol-3-ylsulfanyl)methyl]-phenyl}-4-isoxazolyl)carbamate]",100 to 300,3000 to 10000
"CCCSCc1ccc(-c2onc(C)c2NC(=O)OC(C)c2ccccc2Cl)cc1 (stereo not drawn) [Compound 117, 1-(2-Chlorophenyl)ethyl N-(3-methyl-5-{4-[(propylsulfanyl)methyl]phenyl}-4-isoxazolyl)-carbamate]",30 to 100,3000 to 10000
"Cc1noc(-c2ccnc(Cl)c2)c1NC(=O)OC(C)c1ccccc1Cl (stereo not drawn) [Compound 71, 1-(2-Chlorophenyl)ethyl N-[5-(2-chloro-4-pyridyl)-3-methyl-4-isoxazolyl]carbamate]",1000,3000
"C=CCSCc1ccc(-c2onc(C)c2NC(=O)OC(C)c2ccccc2Cl)cc1 (stereo not drawn) [Compound 123, 1-(2-Chlorophenyl)ethyl N-(5-{4-[(allylsulfanyl)methyl]phenyl}-3-methyl-4-isoxazolyl)-carbamate]",100 to 300,3000 to 10000
Cc1noc(-c2ccc(CSCCc3ccccc3)cc2)c1NC(=O)OC(C)c1ccccc1Cl (stereo not drawn) [Compound 124],100 to 300,10000 to 30000
"COC(=O)C[S+]([O-])Cc1ccc(-c2onc(C)c2NC(=O)OC(C)c2ccccc2Cl)cc1 (stereo not drawn) [Compound 134, Methyl 2-({4-[4-({[1-(2-chlorophenyl)ethoxy]carbonyl}amino)-3-methyl-5-isoxazolyl]-benzyl}sulfinyl)acetate]",100 to 300,3000 to 10000
Cc1noc(-c2ccc(CNCCc3ccccn3)cc2)c1NC(=O)OC(C)c1ccccc1Cl (stereo not drawn) [Compound 103],300,10000
"Cc1noc(-c2ccc(CNCCc3cccnc3)cc2)c1NC(=O)OC(C)c1ccccc1Cl (stereo not drawn) [Compound 110, 1-(2-Chlorophenyl)ethyl N-{3-methyl-5-[4-({[2-(3-pyridyl)ethyl]amino}methyl)-phenyl]-4-isoxazolyl}carbamate]",300 to 1000,10000 to 30000
"Cc1noc(-c2ccc(CNCc3ccco3)cc2)c1NC(=O)OC(C)c1ccccc1Cl (stereo not drawn) [Compound 106, 1-(2-Chlorophenyl)ethyl N-[5-(4-{[(2-furylmethyl)amino]methyl}phenyl)-3-methyl-4-isoxazolyl]carbamate]",1000 to 3000,3000 to 10000
"CCCCSCc1ccc(-c2onc(C)c2NC(=O)OC(C)c2ccccc2Cl)cc1 (stereo not drawn) [Compound 125, 1-(2-Chlorophenyl)ethyl N-(5-{4-[(butylsulfanyl)methyl]phenyl)-3-methyl-4-isoxazolyl)-carbamate]",100 to 300,10000 to 30000
"CCOC(=O)CCNCc1ccc(-c2onc(C)c2NC(=O)OC(C)c2ccccc2Cl)cc1 (stereo not drawn) [Compound 113, Ethyl 3-({4-[4-({[1-(2-chlorophenyl)ethoxy]carbonyl}amino)-3-methyl-5-isoxazolyl]-benzyl}amino)propanoate]",100 to 300,10000 to 30000
"Cc1noc(-c2ccc(CSCCO)cc2)c1NC(=O)OC(C)c1ccccc1Cl (stereo not drawn) [Compound 120, 1-(2-Chlorophenyl)ethyl N-[5-(4-{[(2-hydroxyethyl)sulfanyl]methyl}phenyl)-3-methyl-4-isoxazolyl]carbamate]",100 to 300,3000 to 10000
"Cc1noc(-c2ccc(CNCCF)cc2)c1NC(=O)OC(C)c1ccccc1Cl (stereo not drawn) [Compound 112, 1-(2-Chlorophenyl)ethyl N-[5-(4-{[(2-fluoroethyl)amino]methyl}phenyl)-3-methyl-4-isoxazolyl]carbamate]",300 to 1000,10000 to 30000
"COC(=O)CSCc1ccc(-c2onc(C)c2NC(=O)OC(C)c2ccccc2Cl)cc1 (stereo not drawn) [Compound 118, Methyl 2-({4-[4-({[1-(2-chlorophenyl)ethoxy]carbonyl}-amino)-3-methyl-5-isoxazolyl]-benzyl}-sulfanyl)acetate]",100 to 300,1000 to 3000
"Cc1noc(-c2ccc(CNCC3CCCO3)cc2)c1NC(=O)OC(C)c1ccccc1Cl (stereo not drawn) [Compound 104, 1-(2-Chlorophenyl)ethyl N-[3-methyl-5-(4-{[(tetrahydro-2-furanylmethyl)amino]-methyl}phenyl)-4-isoxazolyl]carbamate]",3000,10000 to 30000
"Cc1noc(-c2ccc(CSCCC(=O)O)cc2)c1NC(=O)OC(C)c1ccccc1Cl (stereo not drawn) [Compound 126, 3-({4-[4-({[1-(2-Chlorophenyl)ethoxy]carbonyl}amino)-3-methyl-5-isoxazolyl]benzyl}-sulfanyl)propanoic acid]",10 to 30,3000 to 10000
COC(=O)CS(=O)(=O)Cc1ccc(-c2onc(C)c2NC(=O)OC(C)c2ccccc2Cl)cc1 (stereo not drawn) [Compound 133],100 to 300,10000

# More lines, now with the values ahead:
IC50 (Human EDG-2/HepG2 cells) [nM],IC50 (human EDG-2) [nM],Structure (SMILES)
30 to 100,3000 to 10000,"COC(=O)CCSCc1ccc(-c2onc(C)c2NC(=O)OC(c2ccccc2)C(F)(F)F)cc1 (stereo not drawn) [Compound 162, Methyl 3-{[4-(3-methyl-4-{[(2,2,2-trifluoro-1-phenylethoxy)carbonyl]amino}-5-isoxazolyl)-benzyl]-sulfanyl}propanoate]"
300 to 1000,3000 to 10000,"CCc1noc(-c2ccc(CCl)cc2)c1NC(=O)OC(c1ccccc1)C(F)(F)F (stereo not drawn) [Compound 164, 2,2,2-Trifluoro-1-phenylethyl N-{5-[4-(chloromethyl)phenyl]-3-ethyl-4-isoxazolyl}carbamate]"
100 to 300,3000 to 10000,"CCc1noc(-c2ccc(CSCC(=O)O)cc2)c1NC(=O)OC(C)c1ccccc1Cl (stereo not drawn) [Compound 154, 2-({4-[4-({[1-(2-Chlorophenyl)ethoxy]carbonyl}amino)-3-ethyl-5-isoxazolyl]benzyl}-sulfanyl)acetic acid]"
1000,3000 to 10000,"Cc1noc(-c2cccc(CSCCS(=O)(=O)O)c2)c1NC(=O)OC(C)c1ccccc1Cl (stereo not drawn) [Compound 158, 2-({3-[4-({[1-(2-Chlorophenyl)ethoxy]carbonyl}amino)-3-methyl-5-isoxazolyl]benzyl}-sulfanyl)-1-ethanesulfonic acid]"
300,3000 to 10000,"CCc1noc(-c2ccc(CSCC(=O)OC)cc2)c1NC(=O)OC(C)c1ccccc1Cl (stereo not drawn) [Compound 153, Methyl 2-({4-[4-({[1-(2-chlorophenyl)ethoxy]carbonyl}amino)-3-ethyl-5-isoxazolyl]benzyl}-sulfanyl)acetate]"
300 to 1000,3000 to 10000,"C=CCSCc1cccc(-c2onc(C)c2NC(=O)OC(C)c2ccccc2Cl)c1 (stereo not drawn) [Compound 141, 1-(2-Chlorophenyl)ethyl N-(5-{3-[(allylsulfanyl)methyl]phenyl}-3-methyl-4-isoxazolyl)-carbamate]"
30 to 100,3000 to 10000,"CCc1noc(-c2ccc(CSCCC(=O)O)cc2)c1NC(=O)OC(C)c1ccccc1F (stereo not drawn) [Compound 167, 3-({4-[3-Ethyl-4-({[1-(2-fluorophenyl)ethoxy]carbonyl}amino)-5-isoxazolyl]benzyl}-sulfanyl)propanoic acid]"
100 to 300,3000 to 10000,"Cc1noc(-c2ccc(CSc3nnnn3C)cc2)c1NC(=O)OC(C)c1ccccc1Cl (stereo not drawn) [Compound 137, 1-(2-Chlorophenyl)ethyl N-[3-methyl-5-(4-{[(1-methyl-1H-1,2,3,4-tetrazol-5-yl)-sulfanyl]methyl}phenyl)-4-isoxazolyl]carbamate]"
100 to 300,3000 to 10000,"Cc1noc(-c2cccc(CSc3nc[nH]n3)c2)c1NC(=O)OC(C)c1ccccc1Cl (stereo not drawn) [Compound 143, 1-(2-Chlorophenyl)ethyl N-(3-methyl-5-{3-[(1H-1,2,4-triazol-3-ylsulfanyl)methyl]phenyl}-4-isoxazolyl)carbamate]"
100 to 300,3000 to 10000,CNC(=O)CSCc1ccc(-c2onc(C)c2NC(=O)OC(C)c2ccccc2Cl)cc1 (stereo not drawn) [Compound 138]
30 to 100,10000,"Cc1noc(-c2ccc(CSCC(=O)NCc3ccco3)cc2)c1NC(=O)OC(C)c1ccccc1Cl (stereo not drawn) [Compound 139, 1-(2-Chlorophenyl)ethyl N-(5-{4-[({2-[(2-furylmethyl)amino]-2-oxoethyl}sulfanyl)-methyl]phenyl)-3-methyl-4-isoxazolyl)carbamate]"
300 to 1000,3000 to 10000,"CCOC(=O)CSCc1cccc(-c2onc(C)c2NC(=O)OC(C)c2ccccc2Cl)c1 (stereo not drawn) [Compound 140, Ethyl 2-({3-[4-({[1-(2-chlorophenyl)ethoxy]carbonyl}amino)-3-methyl-5-isoxazolyl]benzyl}-sulfanyl)acetate]"
100,3000 to 10000,"Cc1noc(-c2ccc(CSCCS(=O)(=O)O)cc2)c1NC(=O)OC(C)c1ccccc1Cl (stereo not drawn) [Compound 151, 2-({4-[4-({[1-(2-Chlorophenyl)ethoxy]carbonyl}amino)-3-methyl-5-isoxazolyl]benzyl}-sulfanyl)-1-ethanesulfonic acid]"
